Results on three compounds are retold here after US12564585B2, “Nutraceuticals having sustained release for improved bioavailability and method of production” (BioActives LLC, priority 2013, dated 2026).

Each structure is given as a SMILES string.

Data set [1] is described as follows: Resveratrol-SR dissolution test (SGF then SIF). Format: physicochemical. The following applies: sink conditions, SGF 2 hr then SIF pH 6.5, 25 mg Resveratrol. The protocol:
The in vitro dissolution study was performed using the Varian 7020 dissolution tester with the basket configuration at 37° C., 100 rpm. The samples equivalent to 25 mg Resveratrol filled in hard gelatin capsules were used for the study. The capsules were introduced into 750 ml of 0.1N HCl (simulated gastric fluid without enzymes, SGF) maintained at 37° C. […] The removed volume was replaced each time with fresh medium. […] Polysorbate 80 dissolved in 55 ml of water was added to a concentration of 0.25% to simulate intestinal fluid. Aliquots were withdrawn at 4, 6, 9, and 12 hrs for analysis as described before and the removed volume was replaced with fresh medium each time. The aliquots were diluted with methanol for HPLC analysis. Resveratrol was quantified using reverse-phase HPLC on a Phenomenex Prodigy column (250×4.6 mm, 5 μm) at room temperature. The samples were eluted using an isocratic mobile phase consisting of 5% acetic acid/55% and methaniol/45%. The flow rate was 1 ml/min and detection wavelength was 306 nm. The retention time for Resveratrol was 7.5 min under these conditions. Standard Resveratrol from Sigma was used for calibration.

Data set [2] in a line: Resveratrol-SR bioavailability pilot human uptake study. Format: in vivo. The following applies: plasma free Resveratrol, 500 mg oral, 0-24 hr. How it is done: Resveratrol-SR formulation and 98% Resveratrol powder equivalent to 500 mg Resveratrol were used for the study. The samples were provided in hard gelatin capsules. The crossover study was done using two healthy subjects who were not consuming Resveratrol supplements. The subjects were asked not to consume Resveratrol containing foods, such as, peanuts grapes and wine, for 48 hours before the study. On the day of the study, 7 ml of blood was collected in EDTA tubes to permit establishment of baseline value. Resveratrol-SR capsules were administered after breakfast and blood samples were drawn as before at 1, 2, 4, 7, 9, and 24 his post-dose. The samples were stored on ice protected from light and the plasma was separated by centrifugation within 1 hr of collection and stored at −70° C. until analysis. After a 7-day washout period the protocol was repeated for the control Resveratrol powder capsules. Plasma total Resveratrol (Resveratrol conjugates and free Resveratrol) and free Resveratrol were determined based on the method described by Meng et al. (Urinary and plasma levels of resveratrol and quercetin in humans, mice and rats after ingestion of pure compounds and grape juice, J. Agric. Food Chem., 52: 935-942, 2004). […] Resveratrol was quantified using reverse-phase HPLC as described above.

Data set [3] can be described thus: Curcumin-SR dissolution test (SGF then SIF). Format: physicochemical. The following applies: simulated gastric and intestinal fluids. How it is done: The in vitro dissolution study was performed using the Varian 7020 dissolution tester with the basket configuration at 37° C., 100 rpm. The samples equivalent to 25 mg Curcumin filled in hard gelatin capsules were used for the study. The capsules were introduced into 750 ml of 0.1N HCl (simulated gastric fluid without enzymes, SGF) maintained at 37° C. At the end of 1 and 2 hrs, 3 ml of the sample was withdrawn and filtered through 10μ-syringe filter. The removed volume was replaced each time with fresh medium. At the end of 2 hr, the pH of the medium was adjusted to 6.5 (simulated intestinal fluid without enzymes, SIF) with 195 ml of 0.2M tribasic sodium phosphate solution equilibrated to 37° C. Polysorbate 80 dissolved in 55 ml of water was added to a concentration of 0.25% to simulate intestinal fluid. Aliquots were withdrawn at 4, 6, 9, and 12 hrs for analysis, as described before, and the removed volume was replaced with fresh medium each time. The aliquots were diluted with methanol for the HPLC analysis of Curcumin. Curcumin was quantified using reverse-phase HPLC on a Phenomenex Luna column (150×4.6 mm, 5 μm) at room temperature. The samples were eluted using an isocratic mobile phase consisting of 5% acetic acid/45% and acetronitrile/55%. The flow rate was 1 ml/min and detection wavelength was 420 nm. Standard Curcumin from Chromadex was used for quantification. […]

The nature of data set [4]: Curcumin-SR bioavailability pilot human uptake study. The class given is in vivo. To be noted: plasma Curcumin, 250 mg total Curcuminoids oral, 0-9 hr. How it is done: (§1) Curcumin-SR formulation and Curcumin powder equivalent to 250 mg total Curcuminoids were used for the study. The samples were provided in hard gelatin capsules. The crossover study was done using two healthy subjects who were not using curcumin in their food preparations or consuming Curcumin supplements. On the day of the study, 7 ml of blood was collected in EDTA tubes to permit establishment of baseline value. Curcumin-SR capsules were administered after breakfast and blood samples were drawn as before at 1, 2, 4, 7, and 9 hrs post-dose. The samples were stored on ice protected from light and the plasma was separated by centrifugation within 1 hr of collection and stored at −70° C. until analysis. After a 7-day washout period the protocol was repeated for the control Curcumin powder capsules.
Hydrolysis of Curcumin conjugates and extraction of Curcumin from the plasma were done based on the method described by Vareed et at. (Pharamcokinetics of curcumin conjugate metabolites in healthy human subjects, Cancer Epidemiol Biomarkers, 17: 1411-1417, 2008). One ml of the plasma was incubated with 2000 units of β-glucuronidase and 260 units sulfatase at 37° C. for 3.5 hrs. The samples were extracted three times with ethyl acetate/methanol (95:5) and the solvents were evaporated under nitrogen protected from light. […] Curcumin was quantified using reverse-phase HPLC as described above.

Data set [5] can be described thus: PQQ-SR dissolution test (SGF then SIF). The following applies: SGF 2 hr then SIF pH 6.5, 20 mg PQQ. Format: physicochemical. How it is done: The in vitro dissolution study was performed using the Varian 7020 dissolution tester with the basket configuration at 37° C., 100 rpm. The samples equivalent to 20 mg PQQ filled in hard gelatin capsules were used for the study. The capsules were introduced into 750 ml of 0.1N HCl (simulated gastric fluid without enzymes, SGF) maintained at 37° C. At the end of 1 and 2 hrs, 2 ml of the sample was withdrawn and filtered through 10μ-syringe filter. The removed volume was replaced each time with fresh medium. PQQ was determined by spectrophotometry at 330 nm.
At the end of 2 hr, the pH of the medium was adjusted to 6.5 (Simulated intestinal fluid without enzymes, SIF) with an appropriate amount of 0.2M tribasic sodium phosphate solution equilibrated to 37° C., Polysorbate 80 at 0.25% (simulating fed state) dissolved in water was added to the medium. Aliquots were withdrawn at 4, 6, 9, and 12 hrs for analysis as described before and the removed volume was replaced with fresh medium each time.

The nature of data set [6]: PQQ-SR bioavailability pilot human uptake study. The class given is in vivo. The following applies: free plasma PQQ. How it is done:
as §1, with “PQQ-SR” for “Curcumin-SR”, “PQQ” for “Curcumin”, “40” for “250”, “PQQ” for “total Curcuminoids”, “subjects.” for “subjects who were not using curcumin in their food preparations or consuming Curcumin supplements.”
Plasma PQQ was extracted using n-butanol and HCl followed by SepPak C-18 clean up of the extract as described by Suzuki et al. (Extractions of pyrroloquinoline quinone from crude biological samples, Suzuki, O., et al., Life Sci., 47: 2135-41, 1990). PQQ was estimated by using the enzymatic method as described by Geiger and Gorisch (Enzymatic determination of pyrroloquinoline quinone using crude membranes from E. coli, Geiger, O. and Gorisch, H., Anal Biochem., 164: 418-23, 1987). The method measures only the free PQQ in the plasma.

The conditions of data set [7]: human studies, background; cited from earlier work.

Consider `Oc1ccc(/C=C/c2cc(O)cc(O)c2)cc1` [Resveratrol powder, 3,4′,5-trihydroxy-trans-stilbene], for which the “dissolution of dose in 4 hours” value in data set [1] came to 100%. For the same compound, in data set [2], the “average area under the curve AUC0-24hr for free Resveratrol” value came to 2290 ng·h/mL.
In the case of `COc1cc(/C=C/C(=O)CC(=O)/C=C/c2ccc(O)c(OC)c2)ccc1O` [Curcumin powder, Curcumin], the “dissolution profile in words” value in data set [3] was “very little is micronized or released at the gastric pH”. The “average area under the curve AUC0-9hr” value in data set [4] stood at 47.78 ng·h/mL.
`O=C(O)c1cc(C(=O)O)c2c(n1)C(=O)C(=O)c1cc(C(=O)O)[nH]c1-2` [control PQQ powder, Pyrroloquinoline quinone]: the “dose in solution by 4 hrs” value in data set [5] came to 100%. Besides, in data set [6], the “time by which plasma level reached near baseline” value is not above 9 h. Moreover, in data set [6] (40 mg oral, 0-9 hr), the “average area under the curve AUC0-9hr” value was 31.41 ng·h/mL. Besides, the Tmax in data set [6] (human, 40 mg PQQ oral, two healthy subjects) amounted to 2 h. For the same compound, in data set [7], the “time after ingestion at which maximum plasma level was reached” value is 2 h and the “time by which levels reached baseline” value was not above 8 h.

In general, Tmax refers to the time at which the peak concentration occurs.
